Assay results: EP0403398A1, “New thioformamide derivatives” (RHONE-POULENC SANTE, priority 1989, dated 1990)

test system: isolated rat aorta; experiment: Test A: activity against contractions induced by low K+ concentrations in the isolated rat aorta; conditions: concentration reducing the 20mM K⁺-induced contraction by 90%; rat thoracic aorta strips denuded of endothelium, Krebs solution, cumulative concentrations; read-out: Activity Test A EC₉₀
Method: The test methods used were adapted from those described by Winslow et al [Eur.J.Pharmacol., 131, 219-228 (1986)] and Karaki [J.Pharmacol. Methods, 18, 1-21 (1987)] for differentiating vaso-relaxant activity. Test A : Activity against contractions induced by low K⁺ concentrations in the isolated rat aorta Thoracic aorta was removed from rats and transverse strips, denuded of endothelium, were suspended in a bath containing Krebs solution. The tension was recorded and a contraction induced by addition of 20mM K⁺ (potassium ion) to the bathing solution. The test compound was added to the bath as a solution in increasing cumulative concentration. The concentration in the bathing solution of the test compound which reduced the K⁺-induced contraction by 90% was determined and expressed in µM as the effective concentration (EC₉₀), given in Table I. Table I

| EC90 [nM] | SMILES |
| --- | --- |
| 300 | CNC(=S)[C@]1(c2cccnc2)CCCC[C@H]1NOC (racemic) [Compound AB, (±)-trans-2-methoxyamino-N-methyl-1-(3-pyridyl)cyclohexanecarbothioamide] |
| 0.03 | CNC(=S)[C@]1(c2cccnc2)CCCC[C@H]1N[C@H](C)c1ccccc1 [BD, (2R,1S)-2-[(R)-1-phenylethylamino]-1-(3-pyridyl)cyclohexane-N-methylcarbothioamide] |
| 3 | CNC(=S)[C@]1(c2cccnc2)CCCC[C@H]1NOCc1ccccc1 (racemic) [AA, (±)-trans-2-benzyloxyamino-N-methyl-1-(3-pyridyl)cyclohexanecarbothioamide] |
| 3 | CNC(=S)[C@]1(c2cccnc2)CCCC[C@H]1N[C@H](C)c1cccc2ccccc12 [BE, (2R,1S)-2-[(R)-1-(1-naphthyl)ethylamino] 1-(3-pyridyl)cyclohexane-N-methylcarbothioamide] |
